Drawing on ChEMBL document CHEMBL1148517, “A new class of selective, non-basic 5-HT2A receptor antagonists” (Bioorg Med Chem Lett, 2006), this text covers Ki and IC50 for 14 compounds.

A value given as a limit tells only on which side of the number the result lay.

One may read the Ki as a dissociation constant, usually derived from enzyme kinetics or from competition with a known ligand. Low values mean a stronger hold on the target, high ones a looser hold on the target. As a reminder, the IC50 is the midpoint of a concentration-inhibition curve. Low readings indicate greater potency in that assay, high ones weaker potency in that assay.

Chain of Voltage-gated inwardly rectifying potassium channel KCNH2 (Q12809 whole entry): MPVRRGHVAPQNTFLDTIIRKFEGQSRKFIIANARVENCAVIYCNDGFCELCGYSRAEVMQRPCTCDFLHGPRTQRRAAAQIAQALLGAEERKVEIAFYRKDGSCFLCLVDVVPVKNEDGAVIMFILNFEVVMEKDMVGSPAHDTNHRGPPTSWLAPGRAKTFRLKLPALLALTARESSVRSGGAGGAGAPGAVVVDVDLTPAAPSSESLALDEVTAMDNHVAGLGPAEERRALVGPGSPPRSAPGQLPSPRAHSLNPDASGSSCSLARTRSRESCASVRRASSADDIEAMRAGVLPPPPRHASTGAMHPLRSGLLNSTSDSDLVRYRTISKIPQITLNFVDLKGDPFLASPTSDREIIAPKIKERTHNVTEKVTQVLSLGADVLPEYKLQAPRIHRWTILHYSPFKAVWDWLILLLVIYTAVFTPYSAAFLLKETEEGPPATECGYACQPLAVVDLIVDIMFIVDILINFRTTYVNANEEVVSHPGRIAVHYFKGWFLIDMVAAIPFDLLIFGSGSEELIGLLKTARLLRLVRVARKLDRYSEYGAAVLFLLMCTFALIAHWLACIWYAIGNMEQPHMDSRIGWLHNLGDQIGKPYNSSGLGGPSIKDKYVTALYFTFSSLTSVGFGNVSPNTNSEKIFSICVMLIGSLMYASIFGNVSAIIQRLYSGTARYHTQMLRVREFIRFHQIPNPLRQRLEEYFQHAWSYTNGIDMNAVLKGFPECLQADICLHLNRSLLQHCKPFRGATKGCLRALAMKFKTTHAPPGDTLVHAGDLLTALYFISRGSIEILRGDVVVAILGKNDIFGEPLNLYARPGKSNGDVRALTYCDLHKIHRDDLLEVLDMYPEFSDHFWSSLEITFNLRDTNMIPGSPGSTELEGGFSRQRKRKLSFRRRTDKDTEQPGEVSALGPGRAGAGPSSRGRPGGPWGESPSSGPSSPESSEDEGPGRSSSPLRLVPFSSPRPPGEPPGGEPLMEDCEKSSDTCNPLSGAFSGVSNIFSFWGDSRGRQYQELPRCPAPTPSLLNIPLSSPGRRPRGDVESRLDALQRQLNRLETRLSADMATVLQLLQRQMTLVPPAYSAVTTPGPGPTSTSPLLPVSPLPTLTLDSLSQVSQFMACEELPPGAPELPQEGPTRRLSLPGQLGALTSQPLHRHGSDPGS

The target in the first assay is T1, 5-hydroxytryptamine receptor 2A (Homo sapiens, UniProt P28223). Put plainly: Binding affinity to human 5HT2A.
T1 sequence (P28223 whole entry): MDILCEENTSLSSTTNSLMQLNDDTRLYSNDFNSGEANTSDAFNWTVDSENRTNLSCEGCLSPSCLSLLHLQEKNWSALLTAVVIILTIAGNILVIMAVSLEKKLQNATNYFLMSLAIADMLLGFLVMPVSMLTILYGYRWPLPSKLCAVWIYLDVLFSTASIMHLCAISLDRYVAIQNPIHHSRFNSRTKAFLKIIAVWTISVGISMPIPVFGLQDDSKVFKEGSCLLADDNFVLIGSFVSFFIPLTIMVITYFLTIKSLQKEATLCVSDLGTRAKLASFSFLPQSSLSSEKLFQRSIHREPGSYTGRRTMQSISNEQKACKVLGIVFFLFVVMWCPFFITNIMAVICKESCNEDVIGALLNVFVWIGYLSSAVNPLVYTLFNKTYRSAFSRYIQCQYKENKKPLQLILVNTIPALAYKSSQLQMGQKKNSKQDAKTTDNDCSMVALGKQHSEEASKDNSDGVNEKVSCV
The compound `O=S(=O)(c1ccc(F)cc1)N1CC=C(CCc2ccc(F)cc2F)CC1` came in with a Ki of 22 nM.

`O=S(=O)(c1ccccc1Cl)N1CCC(CCc2ccc(F)cc2F)CC1` displayed a Ki of 6.1 nM.

Regarding `O=C(c1cccc2cccnc12)N1CCC(CCc2ccc(F)cc2F)CC1`, the Ki turned out to be 2.9 nM. Against the preceding compound, the Ki is about 2.1-fold lower.

On to `O=S(=O)(c1ccc(F)cc1)N1CCC(O)(CCc2ccc(F)cc2F)CC1`, for which the Ki turned out to be 190 nM.

For the compound `O=S(=O)(c1ccc(F)cc1)N1CCC(CCc2ccc(F)cc2F)CC1`, the Ki stood at 52 nM. Compared with the last compound, the Ki is about 3.7-fold lower.

In the case of `O=S(=O)(c1cccc2cccnc12)N1CCC(CCc2ccc(F)cc2F)CC1`, the Ki came to 2.1 nM.

For `O=S(=O)(c1cccc2ccccc12)N1CCC(CCc2ccc(F)cc2F)CC1`, affinity was put at a Ki of 1.7 nM. This Ki and that of the compound before are within 1.5-fold of each other.

Consider `O=S(=O)(c1cccc(F)c1)N1CCC(CCc2ccc(F)cc2F)CC1`, for which the Ki was determined as 14 nM.

Take `N#Cc1ccccc1S(=O)(=O)N1CCC(CCc2ccc(F)cc2F)CC1`: affinity was put at a Ki of 8.1 nM.

For the compound `O=S(=O)(c1ccc(F)cc1)N1CCC(F)(CCc2ccc(F)cc2F)CC1`, the Ki was 24 nM.

On to `O=S(=O)(c1ccc(F)cc1)N1CCN(CCc2ccc(F)cc2F)CC1`, for which the affinity corresponds to a Ki of 4.4 nM.

As for `N#Cc1c[nH]c2c(C(=O)N3CCN(CCc4ccc(F)cc4F)CC3)cccc12`, the Ki came to 0.87 nM.

The compound `O=S(=O)(c1ccccc1F)N1CCC(CCc2ccc(F)cc2F)CC1` displayed a Ki of 9.9 nM.

The target of the next assay is D(2) dopamine receptor (Homo sapiens, UniProt P14416). Nature of the assay: Binding affinity to human D2 receptor.
Chain of D(2) dopamine receptor (P14416 whole entry): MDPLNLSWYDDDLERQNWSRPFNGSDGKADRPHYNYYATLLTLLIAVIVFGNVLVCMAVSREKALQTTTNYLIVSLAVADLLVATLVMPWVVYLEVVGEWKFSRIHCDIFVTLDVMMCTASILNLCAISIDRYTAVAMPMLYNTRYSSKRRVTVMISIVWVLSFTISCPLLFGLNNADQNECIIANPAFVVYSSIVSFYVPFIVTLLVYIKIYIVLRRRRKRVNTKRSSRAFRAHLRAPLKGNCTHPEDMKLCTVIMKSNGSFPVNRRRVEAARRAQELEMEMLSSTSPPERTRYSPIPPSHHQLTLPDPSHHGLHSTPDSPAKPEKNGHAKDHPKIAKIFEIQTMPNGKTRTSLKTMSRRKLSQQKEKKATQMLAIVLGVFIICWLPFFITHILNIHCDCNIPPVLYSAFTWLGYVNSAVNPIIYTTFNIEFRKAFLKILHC
Take `O=S(=O)(c1ccc(F)cc1)N1CC=C(CCc2ccc(F)cc2F)CC1`: the Ki was more than 1000 nM.

Compound `O=S(=O)(c1ccccc1Cl)N1CCC(CCc2ccc(F)cc2F)CC1` gave a Ki of more than 1000 nM.

The compound `O=C(c1cccc2cccnc12)N1CCC(CCc2ccc(F)cc2F)CC1` displayed a Ki of more than 1000 nM.

`O=S(=O)(c1ccc(F)cc1)N1CCC(O)(CCc2ccc(F)cc2F)CC1` showed a Ki of more than 1000 nM.

The compound `O=S(=O)(c1ccc(F)cc1)N1CCC(CCc2ccc(F)cc2F)CC1` came in with a Ki of more than 1000 nM.

Compound `O=S(=O)(c1cccc2cccnc12)N1CCC(CCc2ccc(F)cc2F)CC1` came in with a Ki of more than 1000 nM.

In turn, `O=S(=O)(c1cccc2ccccc12)N1CCC(CCc2ccc(F)cc2F)CC1` registered a Ki of more than 1000 nM.

As to `O=S(=O)(c1cccc(F)c1)N1CCC(CCc2ccc(F)cc2F)CC1`, the Ki was more than 1000 nM.

`N#Cc1ccccc1S(=O)(=O)N1CCC(CCc2ccc(F)cc2F)CC1`: the Ki was more than 1000 nM.

Regarding `O=S(=O)(c1ccc(F)cc1)N1CCC(F)(CCc2ccc(F)cc2F)CC1`, the Ki was more than 1000 nM.

Compound `O=S(=O)(c1ccc(F)cc1)N1CCN(CCc2ccc(F)cc2F)CC1` yielded a Ki of more than 1000 nM.

For `N#Cc1c[nH]c2c(C(=O)N3CCN(CCc4ccc(F)cc4F)CC3)cccc12`, the Ki is more than 1000 nM.

Take `O=S(=O)(c1ccccc1F)N1CCC(CCc2ccc(F)cc2F)CC1`: the Ki was more than 1000 nM.

As for `O=C(c1ccccc1F)N1CCC(CCc2ccc(F)cc2F)CC1`, the Ki was more than 1000 nM.

A further assay concerns the target T2, 5-hydroxytryptamine receptor 2C (Homo sapiens, UniProt P28335).
T2 sequence (P28335 whole entry): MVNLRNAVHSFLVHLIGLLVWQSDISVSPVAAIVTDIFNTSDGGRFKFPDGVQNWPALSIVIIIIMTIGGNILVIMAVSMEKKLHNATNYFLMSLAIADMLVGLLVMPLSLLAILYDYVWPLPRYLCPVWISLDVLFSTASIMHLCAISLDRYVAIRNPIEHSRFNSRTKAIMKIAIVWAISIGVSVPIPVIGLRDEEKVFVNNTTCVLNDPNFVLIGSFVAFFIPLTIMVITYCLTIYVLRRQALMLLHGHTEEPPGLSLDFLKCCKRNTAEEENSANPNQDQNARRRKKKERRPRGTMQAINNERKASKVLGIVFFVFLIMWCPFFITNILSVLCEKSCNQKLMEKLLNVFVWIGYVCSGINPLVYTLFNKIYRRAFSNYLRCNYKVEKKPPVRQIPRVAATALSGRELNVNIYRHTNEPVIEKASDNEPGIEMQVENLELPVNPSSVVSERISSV
Nature of the assay: Binding affinity to human 5HT2C.
In the case of `O=S(=O)(c1ccc(F)cc1)N1CC=C(CCc2ccc(F)cc2F)CC1`, affinity was put at a Ki of 449 nM.

Take `O=S(=O)(c1ccccc1Cl)N1CCC(CCc2ccc(F)cc2F)CC1`: the Ki amounted to 404 nM.

Take `O=C(c1cccc2cccnc12)N1CCC(CCc2ccc(F)cc2F)CC1`: the affinity, expressed as Ki, was 28 nM.

Take `O=S(=O)(c1ccc(F)cc1)N1CCC(O)(CCc2ccc(F)cc2F)CC1`: the Ki was more than 4000 nM.

`O=S(=O)(c1ccc(F)cc1)N1CCC(CCc2ccc(F)cc2F)CC1` showed a Ki of 2030 nM.

`O=S(=O)(c1cccc2cccnc12)N1CCC(CCc2ccc(F)cc2F)CC1` returned a Ki of 184 nM. This Ki lies about 11-fold lower than the previous one.

`O=S(=O)(c1cccc2ccccc12)N1CCC(CCc2ccc(F)cc2F)CC1` gave a Ki of 96 nM. This Ki lies about 1.9-fold lower than the previous one.

`O=S(=O)(c1cccc(F)c1)N1CCC(CCc2ccc(F)cc2F)CC1` showed a Ki of 997 nM. This Ki lies about 10-fold higher than the previous one.

In turn, `N#Cc1ccccc1S(=O)(=O)N1CCC(CCc2ccc(F)cc2F)CC1` registered a Ki of 70 nM. Against the preceding compound, the Ki is about 14-fold lower.

Consider `O=S(=O)(c1ccc(F)cc1)N1CCC(F)(CCc2ccc(F)cc2F)CC1`, for which the Ki turned out to be 806 nM.

`O=S(=O)(c1ccc(F)cc1)N1CCN(CCc2ccc(F)cc2F)CC1` came in with a Ki of 3780 nM.

Compound `N#Cc1c[nH]c2c(C(=O)N3CCN(CCc4ccc(F)cc4F)CC3)cccc12` gave a Ki of 557 nM.

In the case of `O=S(=O)(c1ccccc1F)N1CCC(CCc2ccc(F)cc2F)CC1`, the inhibition constant (Ki) is 239 nM.

In the case of `O=C(c1ccccc1F)N1CCC(CCc2ccc(F)cc2F)CC1`, the Ki worked out at 110 nM.

Another assay addresses Voltage-gated inwardly rectifying potassium channel KCNH2 (Homo sapiens, UniProt Q12809). Put plainly: Binding affinity to human IKr.
In the case of `O=S(=O)(c1ccc(F)cc1)N1CC=C(CCc2ccc(F)cc2F)CC1`, the Ki was more than 9000 nM.

Turning to `O=S(=O)(c1ccccc1Cl)N1CCC(CCc2ccc(F)cc2F)CC1`, the Ki is more than 9000 nM.

As for `O=C(c1cccc2cccnc12)N1CCC(CCc2ccc(F)cc2F)CC1`, the Ki was more than 9000 nM.

With `O=S(=O)(c1ccc(F)cc1)N1CCC(O)(CCc2ccc(F)cc2F)CC1`, the Ki is more than 9000 nM.

The compound `O=S(=O)(c1ccc(F)cc1)N1CCC(CCc2ccc(F)cc2F)CC1` displayed a Ki of more than 9000 nM.

Compound `O=S(=O)(c1cccc2cccnc12)N1CCC(CCc2ccc(F)cc2F)CC1` returned an inhibitory constant (Ki) of more than 9000 nM.

The compound `O=S(=O)(c1cccc2ccccc12)N1CCC(CCc2ccc(F)cc2F)CC1` registered a Ki of more than 9000 nM.

For `O=S(=O)(c1cccc(F)c1)N1CCC(CCc2ccc(F)cc2F)CC1`, the inhibitory constant (Ki) is more than 9000 nM.

Regarding `N#Cc1ccccc1S(=O)(=O)N1CCC(CCc2ccc(F)cc2F)CC1`, the Ki is more than 9000 nM.

Compound `O=S(=O)(c1ccc(F)cc1)N1CCC(F)(CCc2ccc(F)cc2F)CC1` registered a Ki of more than 9000 nM.

`O=S(=O)(c1ccc(F)cc1)N1CCN(CCc2ccc(F)cc2F)CC1` registered an inhibition constant Ki of 4870 nM. That is a single-digit micromolar value.

For the compound `N#Cc1c[nH]c2c(C(=O)N3CCN(CCc4ccc(F)cc4F)CC3)cccc12`, the affinity, expressed as Ki, was 1270 nM.

In the case of `O=S(=O)(c1ccccc1F)N1CCC(CCc2ccc(F)cc2F)CC1`, the Ki is more than 9000 nM.

The compound `O=C(c1ccccc1F)N1CCC(CCc2ccc(F)cc2F)CC1` had a Ki of more than 9000 nM.

In a further assay the target is T1, 5-hydroxytryptamine receptor 2A. Nature of the assay: Antagonist activity against human 5HT2A transfected in CHO cells by aurora beta lactamase reporter gene assay. Format: functional, cell-based. A general note: Reporter assays use an easily measured gene product as a stand-in for the process of interest.
`O=S(=O)(c1cccc(F)c1)N1CCC(CCc2ccc(F)cc2F)CC1` yielded an IC50 of 319 nM.
